For this experiment, the system named is wild-type (WT) mice (C57BL/6J). Nature of the experiment: Closed-chest ischemia (90 minutes) reperfusion (I/R) injury. It is filed as in vivo, mouse. How it is done: Ischemia Reperfusion (I/R) Injury. Hearts from wild-type (WT) mice (C57BL/6J; purchased from Jackson Laboratory) were subjected to ischemia reperfusion (I/R) injury, using the closed-chest ischemia reperfusion model developed by Entman and colleagues (34), and modified as we have described previously (15). For the studies described herein we used 9-10 week old mice that were instrumented, then at 1 week post instrumentation were anesthetized with 1.5% isoflurane, and subjected to 90 minutes of closed-chest ischemia, followed by reperfusion for 2 weeks.
In order to administer Pirfenidone, mice were fed powdered chow mixed with Pirfenidone (eNovation Chemicals, Bridgewater, NJ, USA, Cat #D404655) at 0.5% in weight or powdered chow alone. […] Unless specifically noted, mice were switched to a diet enriched with Pirfenidone 3 days prior to DT-induced injury or I/R-injury, and maintained on this diet throughout the duration of the experiments. In parallel studies, we fed mice normal chow prior to I/R injury and then administered Pirfenidone acutely at the time of cardiac injury. For these latter studies, mice were injected i.p. with diluent (200 μL phosphate-buffered solution [PBS]) or i.p. with Pirfenidone (200 μL of Pirfenidone [5 mg/mL] in PBS) after reperfusion and the morning after I/R injury (2 injections total). They were switched to Pirfenidone-enriched diet or control diet the evening of I/R injury and maintained on the same diet until completion of the experiment.
Rosa26-DT Mlc2v-Cre and littermate control WT mice were euthanized 14 days after DT injection, and the hearts were removed and weighed to determine the heart-weight-to-tibia-length-ratio. WT mice were euthanized 14 days after I/R injury and the hearts were removed and weighed to determine the heart-weight-to-tibia-length-ratio. Hearts were processed, paraffin-embedded, and stained with hematoxylin/eosin and Masson's trichrome, as described (38). TUNEL staining was performed with the Millipore (Burlington, MA, USA) S7200 ApopTag Peroxidase In Situ Oligo Ligation Apoptosis Detection Kit according to the manufacturer's instruction.
Image acquisition. Ultrasound examination of the cardiovascular system was performed using a Vevo 2100 Ultrasound System (VisualSonics Inc, Toronto, Ontario, Canada) equipped with a 30 MHz linear-array transducer, as previously described (15).
Imaging Protocol. Mice were imaged by echocardiography at the time of ischemia and 2 weeks after reperfusion to evaluate LV structure and function, as described (39). The echocardiographer was blinded to study group assignment. Animals with poor acoustic windows or small areas at risk (<0.45) at the time of ischemia were excluded from further analysis.
For flow cytometry experiments, mice were euthanized in a CO2 chamber and the hearts were perfused with cold PBS, carefully dissected from extracardiac tissue under a stereo microscope, finely minced, suspended in 3 ml of DMEM, and then digested with 120 U of DNAse (Sigma), 180 U of hyaluronidase (Sigma) and 1350 U of Collagenase (Sigma) for 60 minutes at 37Co. The digested material was filtered through 40 μm filters and pelleted by centrifugation (250×g for 3 minutes at 4° C.) in HBSS supplemented with 2% FCS+0.2% bovine serum albumin (BSA). Red blood cells were lysed in ACK lysis buffer (Invitrogen) for 15′ on ice and the remaining cells were resuspended in 300 μL of FACS buffer (PBS with 2% FCS and 2 mM EDTA). Cultured cells were collected for FACS analysis as described above and resuspended in 300 μL of FACS buffer. Samples were labeled with the fluorescently conjugated antibodies outlined in the table below. Cells were stained for 45 minutes on ice, and washed in FACS buffer prior to analysis. All antibodies from Biolegend were used at 0.2 μL per 300 μL sample, while antibodies from BD biosciences were used at 0.4 μL per 300 μL sample. FACS was performed on Beckton Dickinson analyzers (LSRII, Canto, X20 or Fortessa). […]

The mark [1] stands for this setting: Pirfenidone chow from 3 days prior to I/R, 2 weeks post I/R, vs control.
Where [2] appears, read: day 4 post I/R, Pirfenidone vs control.

On to `Cc1ccc(=O)n(-c2ccccc2)c1` [Pirfenidone, 5 methyl-1-phenyl-2-[H] pyridone], for which the LVEF result (B-cell depleted (anti-CD20) + Pirfenidone vs B-cell depleted mice, 2 weeks after I/R, p=0.15) is reported as “no significant difference”. The LV mass entry (B-cell depleted (anti-CD20) + Pirfenidone vs B-cell depleted mice, 2 weeks after I/R, p=0.21) was “no significant difference”. Besides, the LV end-diastolic volume entry (B-cell depleted (anti-CD20) + Pirfenidone vs B-cell depleted mice, 2 weeks after I/R, p=0.40) is “no significant difference”. Moreover, for the setting “B-cell depleted (anti-CD20) + Pirfenidone vs B-cell depleted mice, 2 weeks after I/R, p=0.43”, the “percentage of trichrome positive myocardium” value is “no significant difference”. Also, the heart-weight-to-tibia length ratio entry (B-cell depleted (anti-CD20) + Pirfenidone vs B-cell depleted mice, 2 weeks after I/R, p=0.75) is listed as “no significant difference”. Moreover, the “area at risk (segmental wall motion score index, SWMSI)” value (Pirfenidone chow from 3 days prior to I/R vs control, p=0.68) is “no difference”. Under setting [1], the LV end-diastolic volumes entry was “significant (p=0.02) decrease”, the LVEF entry is on record as “trend (p=0.08) towards improvement” and the heart-weight-to-tibia length ratio entry was “significant decrease”. For the same compound, for the setting “Pirfenidone chow from 3 days prior to I/R, 2 weeks post I/R, vs control, p=0.03”, the “LV mass measured by 2-D echocardiography” value was “significant decrease”. Further, the “percentage of myocardium exhibiting collagen staining with Masson's trichrome” value (Pirfenidone chow from 3 days prior to I/R, at 2 weeks, vs normal chow, p=0.4) is reported as “no significant difference”. The heart-weight/tibia length ratio result (acute administration of Pirfenidone after reperfusion then chow 14 days, vs diluent, p=0.015) was “significantly (p=0.015) reduced”. Moreover, where the note is “acute administration of Pirfenidone after reperfusion, vs diluent, p=0.47”, the area at risk result is on record as “not different”. In addition, under setting [2], the “CD19+ lymphocytes” value is recorded as “significant (p<0.001) reduction” and the “subset of CD19+CD11b− B lymphocytes” value is recorded as “significant (p<0.001) reduction”. The “number of myocardial CD19+ CD86high” value (following I/R injury, day 4) is given as “significant (p<0.03) decrease”.
